In US5612344A, “Triazoloquinazolines for the treatment of central nervous disorders” (BASF Aktiengesellschaft, priority 1992, dated 1997):

What follows are molecules tested against T1, NMDA (N-methyl-D-aspartate) receptors (Rattus norvegicus, UniProt P35439) (assay: Binding of 3H-5,7-dichlorokynurenic acid (displacement from rat cerebra membrane material)). Conditions: displacement of 3H-5,7-dichlorokynurenic acid, rat cerebra membranes, pH 7.4, on ice 30 minutes.
T1 construct: isolated membrane material from rat cerebra; from tissue; host or cells: rat cerebrum membranes
Method: (§1) The pharmacological activity of the compounds I according to the invention was investigated on isolated membrane material from rat cerebra. To do this, the membrane material was treated in the presence of the compounds according to the invention with the radiolabeled substances ^3 H-2-amino-3-hydroxy-5-methyl-4-isoxazolepropionic acid (^3 H-AMPA) and ^3 H-5,7-dichlorokynurenic acid, these binding to specific receptors (AMPA and NMDA (N-methyl-D-aspartate) receptors respectively). Subsequently the radioactivity on the treated membranes was measured by scintillation counting. The amounts of bound ^3 H-AMPA and ^3 H-5,7-dichlorokynurenic acid, or in each case the amounts of these radiolabeled substances displaced, were determined from the bound radioactivity. The dissociation constant KI (I=inhibitor) which results from this and which is a measure of the displacing effect of the active substance according to the invention was found by iterative non-linear regression analysis using the statistical analysis system (SAS) on an IBM computer similar to the "ligand" program of P. J. Munson and D. Rodbard (Analytical Biochem., […], Ligand: Versatile Computerized Approach for Characterization of Ligand Binding Systems).
2. Binding of ^3 H-5,7-dichlorokynurenic acid
To prepare the membrane material, freshly removed rat cerebra were homogenized together with about 10 times the volume of a buffer solution A composed of 50 mM TRIS-HCl and 10 mM EDTA, pH 7.4. The suspension was centrifuged at 48,000 g for 20 minutes. […]
For the binding assay, the protein material was thawed at 37° C. and washed twice by centrifuging at 48,000 g (20 minutes) and subsequently suspending in a buffer solution B composed of 50 mM TRIS-HCl, pH 7.4. […] The radioactivity of the ^3 H-5,7-dichlorokynurenic acid bound to the membranes in the sediment was measured, and the KI was obtained by subjecting the displacement plots to regression analysis.

Row | Ki | SMILES
1 | 160 nM | CCOC(=O)c1nc2c3cc(C)c(C)cc3nc(=O)n2[nH]1 [Ethyl 8,9-dimethyl-1,2,4-triazolo-[1,5-c]-quinazolin-5-one-2-carboxylate]
2 | 200 nM | O=C(O)c1nc2c3c(Cl)cc(Cl)cc3nc(=O)n2[nH]1 [8,10-Dichloro-1,2,4-triazolo[1,5-c]-quinazolin-5-one-2-carboxylic acid]
3 | 90 nM | Cc1cc2nc(=O)n3[nH]c(C(=O)O)nc3c2cc1C [8,9-Dimethyl-1,2,4-triazolo[1,5-c]-quinazolin-5-one-2-carboxylic acid]

What follows are molecules tested against AMPA receptors (assay: Binding of 3H-AMPA (displacement from rat cerebra membrane material)). Conditions: displacement of 3H-AMPA, rat cerebra membranes, pH 7.1, on ice 60 minutes.
Method: as §1
1. Binding of ^3 H-2-amino-3-hydroxy-5-methyl-4-isoxazolepropionic acid (^3 H-AMPA)
To prepare the membrane material, freshly removed rat cerebra were homogenized together with 15 times the volume of a buffer solution A composed of 30 mM α,α,α-tris(hydroxymethyl)methylamine hydrochloride (TRIS-HCl) and 0.5 mM ethylenediaminetetraacetic acid (EDTA), pH 7.4, using an Ultra-Turrax. […]
For the binding assay, the protein material was thawed at 37° C. and washed twice by centrifuging at 48,000 g (20 minutes) and subsequently suspending in a buffer solution B composed of 50 mM TRIS-HCl, 0.1M potassium thiocyanate and 2.5 mM calcium chloride, pH 7.1. […] The radioactivity of the bound ^3 H-AMPA in the membrane material was measured by scintillation counting and then the KI was determined by subjecting the displacement plots to regression analysis.

Row | Ki | SMILES
4 | 1300 nM | O=C(O)c1nc2c3c(Cl)cc(Cl)cc3nc(=O)n2[nH]1 [8,10-Dichloro-1,2,4-triazolo[1,5-c]-quinazolin-5-one-2-carboxylic acid]
5 | 2600 nM | O=C(O)c1nc2c3ccc([N+](=O)[O-])cc3nc(=O)n2[nH]1 [8-Nitro-1,2,4-triazolo[1,5-c]-quinazolin-5-one-2-carboxylic acid]
6 | 1400 nM | O=C(O)c1nc2c3ccc(C(F)(F)F)cc3nc(=O)n2[nH]1 [8-Trifluoromethyl-1,2,4-triazolo[1,5-c]-quinazolin-5-one-2-carboxylic acid]
